For the data set, the system named is HT-29 cells. Nature of the data set: Comet assay (single cell gel electrophoresis), genotoxic potential. It is filed as cell-based, Human. The settings on record: concentration corresponding to quercetin 70 µM.

The structures appear in SMILES notation.

Data on one compound can be found in EP3673920A1, “POLYPHENOL-PEPTIDE CONJUGATES FOR NUCLEAR-TARGETED DELIVERY” (Universität Wien, priority 2018, dated 2020).

Turning to `O=c1c(O)c(-c2ccc(O)c(O)c2)oc2cc(O)cc(O)c12` [quercetin], the “genotoxic effect / DNA integrity” value was “genotoxic effect”.
